# Legend:
# [1] = system: Venturia inaequalis; assay: Venturia test (apple) / protective; assay type: in vivo; conditions: 240 h, active compound concentration 100 ppm, evaluation 10 days after inoculation, read-out: efficacy
# Protocol: After the spray coating has dried on, the plants are inoculated with an aqueous conidia suspension of the apple scab pathogen Venturia inaequalis and then remain for 1 day in an incubation cabinet at about 20° C. and 100% relative atmospheric humidity.
# [2] = system: Alternaria solani; assay: Alternaria test (tomato) / protective; assay type: in vivo; conditions: 72 h, active compound concentration 100 ppm, evaluation 3 days after inoculation, read-out: efficacy
# Protocol: The plants are then placed in an incubation cabinet at about 20° C. and 100% relative atmospheric humidity.
# [3] = system: Sphaerotheca fuliginea; assay: Sphaerotheca test (cucumber) / protective; assay type: in vivo; conditions: Podosphaera fuliginea, 168 h, active compound concentration 500 ppm, evaluation 7 days after inoculation, read-out: efficacy
# Protocol: The plants are subsequently placed in a greenhouse at 70% relative atmospheric humidity and a temperature of 23° C.
# [4] = system: Leptosphaeria nodorum; assay: Leptosphaeria nodorum test (wheat) / protective; assay type: in vivo; conditions: Parastagonospora nodorum, active compound concentration 500 ppm, evaluation 7-9 days after inoculation, read-out: efficacy
# Protocol: Thereafter, the plants are placed in a greenhouse at 90% relative atmospheric humidity and a temperature of 22° C.
# [5] = system: Pyrenophora teres; assay: Pyrenophora teres test (barley) / protective; assay type: in vivo; conditions: 192 h, active compound concentration 500 ppm, evaluation 8 days after inoculation, read-out: efficacy
# Protocol: After the spray coating has dried on, the plants are sprayed with a spore suspension of Pyrenophora teres. The plants remain in an incubation cabinet for 48 hours at 20° C. and 100% relative atmospheric humidity.
# [6] = logP by LC-MS on reversed-phase columns (C 18), method [b], acidic range pH 2.7; assay type: physicochemical; conditions: pH 2.7, log p
# Protocol: (§1) The logP values were determined in accordance with EEC Directive 79/831 Annex V.A8 by HPLC (High Performance Liquid Chromatography) on reversed-phase columns (C 18), using the methods below:
# [b] The LC-MS determination in the acidic range is carried out at pH 2.7 using the mobile phases 0.1% aqueous formic acid and acetonitrile (contains 0.1% formic acid), linear gradient from 10% acetonitrile to 95% acetonitrile.
# [7] = logP by LC-MS on reversed-phase columns (C 18), method [c], neutral range pH 7.8; assay type: physicochemical; conditions: pH 7.8
# Protocol: as §1
# [c] The LC-MS determination in the neutral range is carried out at pH 7.8 using the mobile phases 0.001 molar aqueous ammonium bicarbonate solution and acetonitrile, linear gradient from 10% acetonitrile to 95% acetonitrile.
# [8] = system: Pyricularia oryzae; assay: whole plant or invertebrate; assay type: in vivo; conditions: 120 h, read-out: efficacy
# [9] = system: Rhizoctonia solani; assay: Rhizoctonia test (rice) / protective; assay type: in vivo; conditions: 96 h, active compound concentration 250 ppm, evaluation 4 days after inoculation, read-out: efficacy
# [10] = system: Cochliobolus miyabeanus; assay: Cochliobolus test (rice) / protective; conditions: Bipolaris oryzae, in Oryza sativa, 96 h, read-out: efficacy
# Protocol: Cochliobolus Test (Rice)/Protective • Solvent: 28.5 parts by weight of acetone • Emulsifier: 1.5 parts by weight of alkylaryl polyglycol ether
# 1 day after the treatment, the plants are inoculated with an aqueous spore suspension of Cochliobolus miyabeanus. The plants are then placed in a greenhouse at 100% relative atmospheric humidity and 25° C.
# Evaluation is carried out 4 days after the inoculation.
SMILES,pest or weed control at 100 ppm [1] [%],pest or weed control at 100 ppm [2] [%],pest or weed control at 500 ppm [3] [%],pest or weed control at 500 ppm [4] [%],pest or weed control at 500 ppm [5] [%],chromatographic logP [6],chromatographic logP [7],pest or weed control at 250 ppm [8] [%],pest or weed control at 250 ppm [9] [%],pest or weed control at 250 ppm [10] [%]
CCC(C)SC(C)c1cccc(Nc2ncc(Cl)c(NC3CC3)n2)c1 (stereo not shown) [Example 133],≥ 70,≥ 70,≥ 70,≥ 70,≥ 70,3.79,5.08,,,
COCCOc1cccc(Nc2ncc(C(F)(F)F)c(NC3CCC3)n2)c1 [Example 71],,,,≥ 70,,3.33,,≥ 80,≥ 80,≥ 80
CCCSc1cccc(Nc2ncc(Cl)c(NC3CCC3)n2)c1 [Example 5],,,,≥ 70,≥ 70,3.66,,≥ 80,≥ 80,≥ 80
CCC[S+]([O-])c1cccc(Nc2ncc(Cl)c(NC3CC3)n2)c1 (stereo not shown) [Example 205],≥ 70,≥ 70,≥ 70,≥ 70,≥ 70,1.8,2.47,,,
CCS(=O)(=O)C(C)c1cccc(Nc2ncc(Cl)c(NC3CC3)n2)c1 (stereo not shown) [Example 75],,,≥ 70,≥ 70,≥ 70,2.54,,≥ 80,,≥ 80
COCCOc1cccc(Nc2ncc(Cl)c(NC3CCC3)n2)c1 [Example 66],≥ 70,≥ 70,,≥ 70,≥ 70,2.12,,≥ 80,,
COCCCSc1cccc(Nc2ncc(Cl)c(NC3CC3)n2)c1 [Example 201],,,,≥ 70,,2.59,3.77,≥ 80,≥ 80,≥ 80
CCS(=O)(=O)c1cccc(Nc2ncc(C(F)(F)F)c(NC3CCC3)n2)c1 [Example 118],≥ 70,≥ 70,≥ 70,≥ 70,≥ 70,3.07,3.23,,,
COCc1cccc(Nc2ncc(Br)c(NC(C)C)n2)c1 [Example 70],,,,≥ 70,,1.92,,≥ 80,≥ 80,≥ 80
CCNc1nc(Nc2cccc(COC)c2)ncc1Cl [Example 95],,,,≥ 70,,1.47,2.84,≥ 80,,≥ 80
CCCCSc1cccc(Nc2ncc(Br)c(NC3CC3)n2)c1 [Example 105],,,,≥ 70,,4,4.99,≥ 80,≥ 80,≥ 80
CCCC[S+]([O-])c1cccc(Nc2ncc(Br)c(NC3CC3)n2)c1 (stereo not shown) [Example 126],,,,≥ 70,≥ 70,2.28,2.86,≥ 80,≥ 80,≥ 80
CCS(=O)(=O)c1cccc(Nc2ncc(Cl)c(NC3CC3)n2)c1 [Example 113],≥ 70,≥ 70,≥ 70,≥ 70,≥ 70,1.87,2.48,,,
COCc1cccc(Nc2ncc(C(F)(F)F)c(NCC3CC3)n2)c1 [Example 127],,,≥ 70,≥ 70,≥ 70,,,≥ 80,≥ 80,≥ 80
CCC[S+]([O-])c1cccc(Nc2ncc(Br)c(NC3CC3)n2)c1 (stereo not shown) [Example 102],,,,≥ 70,≥ 70,1.04,2.5,≥ 80,≥ 80,≥ 80
CC[S+]([O-])c1cccc(Nc2ncc(C(F)(F)F)c(NC3CCC3)n2)c1 (stereo not shown) [Example 119],≥ 70,≥ 70,≥ 70,≥ 70,≥ 70,2.61,2.81,,,
CCOCCOc1ccc(Nc2ncc(C(F)(F)F)c(NC3CC3)n2)cc1 [Example 91],,,≥ 70,≥ 70,≥ 70,3.26,3.64,≥ 80,≥ 80,≥ 80
CCCCSc1cccc(Nc2ncc(C(F)(F)F)c(NC3CC3)n2)c1 [Example 107],,,,≥ 70,,4.94,,≥ 80,≥ 80,≥ 80
CCCSc1cccc(Nc2ncc(C(F)(F)F)c(NC3CC3)n2)c1 [Example 109],,,≥ 70,≥ 70,,4.44,,≥ 80,≥ 80,≥ 80
CCCS(=O)(=O)c1cccc(Nc2ncc(Cl)c(NC3CCC3)n2)c1 [Example 103],,,,≥ 70,,2.6,3.27,,≥ 80,≥ 80
CSC(C)c1cccc(Nc2ncc(Cl)c(NC3CCC3)n2)c1 (stereo not shown) [Example 14],≥ 70,≥ 70,,≥ 70,≥ 70,2.82,,≥ 80,≥ 80,
COC(C)c1cccc(Nc2ncc(C(F)(F)F)c(NC3CCC3)n2)c1 (stereo not shown) [Example 19],,,,≥ 70,≥ 70,3.69,,≥ 80,≥ 80,≥ 80
CSC(C)c1cccc(Nc2ncc(Br)c(NC3CCC3)n2)c1 (stereo not shown) [Example 13],≥ 70,≥ 70,≥ 70,≥ 70,≥ 70,3.07,,≥ 80,,
COCCOc1ccc(Nc2ncc(C(F)(F)F)c(NC3CC3)n2)cc1 [Example 82],,,,≥ 70,≥ 70,2.3,3.06,≥ 80,,≥ 80
COCc1cccc(Nc2ncc(Cl)c(NC3CCCC3)n2)c1 [Example 7],,,,≥ 70,,2.23,,,≥ 80,≥ 80
CCC(C)S(=O)(=O)C(C)c1cccc(Nc2ncc(Cl)c(NC3CC3)n2)c1 (stereo not shown) [Example 163],≥ 70,≥ 70,≥ 70,≥ 70,≥ 70,2.16,3.16,,,
CCC1CC1Nc1nc(Nc2cccc(COC)c2)ncc1Cl (stereo not shown) [Example 108],,,,≥ 70,,2.46,,≥ 80,,≥ 80
CCC(C)[S+]([O-])C(C)c1cccc(Nc2ncc(Cl)c(NC3CC3)n2)c1 (stereo not shown) [Example 164],≥ 70,≥ 70,≥ 70,≥ 70,≥ 70,2,2.79,,,

# Source: US20110245284A1, “Alkoxy- and Alkylthio-Substituted Anilinopyrimidines” (Bayer CropScience AG, priority 2008, published 2011)
